Assays:
[1] = system: db/db mice; assay: Chronic administration, glucose-stimulated insulin release in db/db mice; type: in vivo, mouse; details: glucose-stimulated insulin release, chronic administration
Procedure: (§1) Oral gavage administrated, daily dose volume was 10 mL/kg, administered once daily. Administration time was 9: 00-10:00 daily, and the administration period was 5 weeks.
The fourth week after administration, the mice were starved for 6 hours after morning administration and were orally administrated with glucose (1.5 g/kg), and blood was collected from the tail (10 μL EDTA+20 μL tail blood). Centrifuged and the supernatant was taken, stored at −20° C. for insulin test.

[2] = system: db/db mice; assay: Acute administration at multiple doses, random blood glucose in db/db mice; type: in vivo, mouse; details: for Blood glucose level 0 h: before administration
Procedure: (1) 127 db/db mice (half male and half female) entered the animal laboratory of the institute at 7 weeks of age and were grouped at 10 weeks of age. Random blood glucose and random body weight of all db/db mice were determined at 9:00 am, and then fasted for 6 hours (free drinking). Fasting blood glucose and fasting body weight were determined, and blood was collected (10 μl EDTA+20 μl tail blood, centrifugated to collect supernatant) to determine the insulin content. […] The db/db mice were once orally administered at a dose of 10 mL/kg. Blood glucose levels were measured before administration, and at 1 h, 2 h, 3 h, 4 h, 6 h after administration, and the administration times and body weights were recorded. Mice took food and water freely during the experiment.
Average hypoglycemic rate %=(model control group−administration group)/(model control group−blank control group)*100%

[3] = system: SD rats; assay: Acute administration of A28 at multiple doses, glucose tolerance of SD rats; type: in vivo, rat; details: SD rats OGTT; for Blood glucose level 0: before sugar
Procedure: (1) 80 SD rats were selected and starved overnight, took water freely, then randomly divided into 10 groups according to body weight and random blood glucose, 8 rats in each group. […] 1 h after oral gavage, 3 g/kg of glucose was orally administered to each group except blank control group, and the blood glucose level was monitored before the sugar administration, and at 15, 30, 60, 90 and 120 minutes after the sugar administration.
Average hypoglycemic rate %=(AUC0-120 min of solvent control group−AUC0-120 min of administration group)/(AUC0-120 min of solvent control group−AUC0-120 min of blank control group)*100%

[4] = system: db/db mice; assay: Chronic administration, glycosylated hemoglobin level in db/db mice; type: in vivo, mouse; details: for HbA1c Decline rate %: vs vehicle
Procedure: as §1
In the end of the above experiment, the orbital blood was taken from animals of each group and divided into two tubes, one was centrifuged to take blood cells for the determination of glycated hemoglobin content, the other tube was added with 25 μL EDTA in advance, centrifuged and the supernatant was taken to determine the indexes such as triglyceride (TG), total cholesterol (TC), total protein (TP), albumin, low density lipoprotein (LDL), high density lipoprotein (HDL), non-esterified fatty acid (NEFA) and so on.

[5] = system: SD rats; assay: Acute administration of A28 at multiple doses, urinary glucose of SD rats; type: in vivo, rat; details: within 24 h
Procedure: (1) 72 normal male SD rats were selected and randomly divided into 9 groups according to body weight and blood glucose, 8 in each group. […] After oral gavage, the rats were placed in rats metabolic cages, and urine was collected after 24 h, and the urine volume was recorded, then preserved under −20° C. Rats take food and water freely during the experimental period.
(2) Index Determination: Glucose levels in urine are measured by the glucose assay kit.

SMILES: CCOc1ccc(Cc2cc([C@@H]3O[C@H](CO)[C@@H](O)[C@H](O)[C@H]3O)ccc2Cl)cc1 [Dapa]
- Insulin AUC ([1]; dose 1 mg/kg): 27.89 ± 3.63
- Insulin (ng/ml) 0 min ([1]; dose 1 mg/kg): 12.92 ± 1.17 ng/mL
- Insulin (ng/ml) 15 min ([1]; dose 1 mg/kg): 35.99 ± 5.34 ng/mL
- Insulin (ng/ml) 30 min ([1]; dose 1 mg/kg): 29.85 ± 4.97 ng/mL
- Insulin (ng/ml) 60 min ([1]; dose 1 mg/kg): 24.33 ± 2.90 ng/mL
- Insulin (ng/ml) pre ([1]; dose 1 mg/kg): 8.05 ± 1.10 ng/mL
- Insulin AUC ([1]; dose 3 mg/kg): 22.69 ± 2.89
- Insulin (ng/ml) 0 min ([1]; dose 3 mg/kg): 8.41 ± 1.07 ng/mL
- Insulin (ng/ml) 15 min ([1]; dose 3 mg/kg): 21.29 ± 3.11 ng/mL
- Insulin (ng/ml) 30 min ([1]; dose 3 mg/kg): 22.60 ± 3.22 ng/mL
- Insulin (ng/ml) 60 min ([1]; dose 3 mg/kg): 31.36 ± 5.44 ng/mL
- Insulin (ng/ml) pre ([1]; dose 3 mg/kg): 8.15 ± 0.91 ng/mL
- AUC0-6 h ([2]; single oral 1 mg/kg): 67.8 ± 2.5 mmol·h/L
- Blood glucose level 1 h ([2]; single oral 1 mg/kg): 13.0 ± 0.7 mmol/L
- Blood glucose level 2 h ([2]; single oral 1 mg/kg): 11.4 ± 0.6 mmol/L
- Blood glucose level 3 h ([2]; single oral 1 mg/kg): 10.2 ± 0.6 mmol/L
- Blood glucose level 4 h ([2]; single oral 1 mg/kg): 9.8 ± 0.7 mmol/L
- Blood glucose level 6 h ([2]; single oral 1 mg/kg): 8.8 ± 0.6 mmol/L
- Blood glucose level 0 h ([2]; single oral 1 mg/kg): 19.3 ± 1.3 mmol/L
- AUC0-6 h ([2]; single oral 3 mg/kg): 59.7 ± 1.7 mmol·h/L
- Blood glucose level 1 h ([2]; single oral 3 mg/kg): 11.8 ± 0.5 mmol/L
- Blood glucose level 2 h ([2]; single oral 3 mg/kg): 8.5 ± 0.4 mmol/L
- Blood glucose level 3 h ([2]; single oral 3 mg/kg): 8.6 ± 0.5 mmol/L
- Blood glucose level 4 h ([2]; single oral 3 mg/kg): 8.5 ± 0.3 mmol/L
- Blood glucose level 6 h ([2]; single oral 3 mg/kg): 9.4 ± 0.7 mmol/L
- Blood glucose level 0 h ([2]; single oral 3 mg/kg): 17.5 ± 1.3 mmol/L
- AUC0-2 h ([3]; oral 1 mg/kg): 16.6 ± 1.2 mmol·h/L
- Average hypoglycemic rate % (0-2 h) ([3]; oral 1 mg/kg): 35.1%
- Blood glucose level 15 min ([3]; oral 1 mg/kg): 6.6 ± 0.7 mmol/L
- Blood glucose level 30 min ([3]; oral 1 mg/kg): 7.8 ± 0.9 mmol/L
- Blood glucose level 60 min ([3]; oral 1 mg/kg): 9.4 ± 1.1 mmol/L
- Blood glucose level 90 min ([3]; oral 1 mg/kg): 9.5 ± 1.0 mmol/L
- Blood glucose level 120 min ([3]; oral 1 mg/kg): 7.9 ± 1.3 mmol/L
- Blood glucose level 0 ([3]; oral 1 mg/kg): 4.9 ± 0.4 mmol/L
- AUC0-2 h ([3]; oral 3 mg/kg): 14.9 ± 1.0 mmol·h/L
- Average hypoglycemic rate % (0-2 h) ([3]; oral 3 mg/kg): 51.5%
- Blood glucose level 15 min ([3]; oral 3 mg/kg): 4.7 ± 0.2 mmol/L
- Blood glucose level 30 min ([3]; oral 3 mg/kg): 6.9 ± 1.0 mmol/L
- Blood glucose level 60 min ([3]; oral 3 mg/kg): 8.6 ± 1.0 mmol/L
- Blood glucose level 90 min ([3]; oral 3 mg/kg): 8.6 ± 1.3 mmol/L
- Blood glucose level 120 min ([3]; oral 3 mg/kg): 8.3 ± 1.2 mmol/L
- Blood glucose level 0 ([3]; oral 3 mg/kg): 4.0 ± 0.6 mmol/L
- HbA1c (%) ([4]; dose 1 mg/kg): 5.79 ± 0.32 %
- HbA1c Decline rate % ([4]; dose 1 mg/kg): 23.7%
- HbA1c (%) ([4]; dose 3 mg/kg): 5.32 ± 0.26 %
- HbA1c Decline rate % ([4]; dose 3 mg/kg): 29.9%
- Total sugar excretion ([5]; oral 1 mg/kg): 706.69 ± 39.98 mg/100 g
- Urine concentration ([5]; oral 1 mg/kg): 313.13 ± 16.92 mmol/L
- Urine volume ([5]; oral 1 mg/kg): 31.38 ± 1.99 mL
- Total sugar excretion ([5]; oral 3 mg/kg): 859.30 ± 41.55 mg/100 g
- Urine concentration ([5]; oral 3 mg/kg): 327.16 ± 24.63 mmol/L
- Urine volume ([5]; oral 3 mg/kg): 36.88 ± 1.55 mL
